Reference: article PMC11982978, “Cancer hotspot mutations rewire ERK2 specificity by selective exclusion of docking interactions” (The Journal of Biological Chemistry, 2025)
“And” between values parts separate entries of the source, which are not always exact repeats. Identical values can stand only once.

Columns and labels:
[1] = test system: WT ERK2; test: Y2H D-site library screen, WT ERK2; type: cell-based, rat; set-up: key: ES = slope of ln(Ft/F0) vs number of yeast population doublings; details: mutant ES is the combined average ES from the D319N and E320K screens
Source text: (§1) To examine how cancer-associated CD site mutations affect the scope of ERK2 docking interactions, we adopted a Y2H strategy that we previously applied to define the D-site interactome of WT ERK2 ([15]). This system reports on interactions between ERK2 and a fragment of its substrate ELK1 that harbors a docking site essential for binding (Fig. 1C). The system thus evaluates the binding of potential sequences by substituting them for the native ELK1 docking site. We transformed Y2H strains with a bait plasmid expressing the Gal4 DNA-binding domain (DBD) fused to WT or CD mutant forms of rat ERK2 (R133K, D319N or E320K, equivalent respectively to human R135K, D321N and E322K), along with a prey plasmid expressing Gal4 activation domain (AD) fused to the ELK1 fragment harboring various docking site sequences. We then assayed these strains for growth on solid media under non-selective (+His) and selective conditions (−His) to detect interactions (Fig. 1D).
(§2) We previously used the Y2H system to screen WT ERK2 against a pooled library of 11,756 ELK1 variants incorporating potential docking sites from the human proteome ([15]). To identify interacting sequences either gained or lost upon ERK2 CD site mutation, we screened the same library against ERK2^D319N and ERK2^E320K. Yeast expressing ERK2 mutant bait plasmids were transformed with the ELK1 library pool and subjected to competitive growth under selective (−His) and non-selective conditions (+His) in parallel. Cultures were sampled periodically over ∼7 population doublings. The DNA sequence encoding the variable docking site region was PCR amplified and analyzed by next-generation sequencing (Fig. 2A, Dataset S1). The change in sequence abundance over time was fitted to an exponential function to assign an enrichment score (ES) to each docking site, where a higher ES indicates a greater increase in sequence abundance as the population grows. A significant enrichment of docking site sequences was observed only under selective conditions (Figs. 2B, S1). For each mutant, we observed generally good reproducibility across three independently conducted screens albeit with some sequences enriched in only a single replicate (Fig. S2, A and B). Average ES scores for the E320K and D319N mutant screens were better correlated with each other (R = 0.83) than were average ES scores for either mutant compared to WT ERK2 (R = 0.67 for WT versus D319N, R = 0.63 for WT versus E320K) (Fig. S2C).
(§3) To compare sequences selected by CD mutants with those selected by WT ERK2, we defined those sequences with an ES equal to or higher than three standard deviations from the mean (Z > 3) as hits. Using this cutoff, we obtained 121, 127, and 153 hits sequences from the WT, D319N, and E320K screens, respectively (Fig. 2C, Dataset S2).
(§4) Yeast harboring pGBT9-ERK2^E320K or pGBT9-ERK2^D319N were transformed with the pGADGH-ELK1 D-site library plasmid pool. Transformants (10–40 colonies per library component) were suspended in SD-Leu-Trp media, diluted to an OD600 of 0.1, and cultured in a shaking incubator at 30 °C to an OD600 of 1.0. The resulting culture was used to initiate a competitive selection screen. Cell growth, sample collection and data analysis were performed exactly as described previously for WT ERK2 ([15]). The frequency (F) of each D-site sequence at a given time point (t) was calculated by dividing the number of reads by the total read count for all sequences. For each sequence, a plot of ln(Ft/F0) as a function of the number of yeast population doublings was fit to a line, and the enrichment score (ES) for that sequence was defined as the slope of this line. Illumina sequencing reads, calculated ES, and Z scores for each screen are provided in Dataset S1.

[2] = test system: WT ERK2; details: selective conditions (-His); hits Z > 3; average of three screens; cited from earlier work
Source text: Supplement mmc2.xlsx, sheet "WT Hits" | column: Z-score

[3] = test system: ERK2 D319N; test: Y2H D-site library screen, ERK2 D319N; type: cell-based, rat; set-up: key to ES, +His / ES, -His: ES = slope of ln(Ft/F0) vs number of yeast population doublings
Source text: as §1, §2, §3, §4

[4] = test system: ERK2 E320K; test: Y2H D-site library screen, ERK2 E320K; type: cell-based, rat; set-up: key to ES, +His / ES, -His: ES = slope of ln(Ft/F0) vs number of yeast population doublings
Source text: as §1, §2, §3, §4

[5] = Average of 3 Replicate Screens, non-selective
[6] = Average of 3 Replicate Screens, selective
[7] = Average of 3 Replicate Experiments, non-selective
[8] = Average of 3 Replicate Experiments, selective

Sequence	WT ES - mutant ES [1]	Z-score (ES) of hit sequences, WT ERK2 Y2H screen [2]	further results
LWTRRRSERIFLHD [TNRC18, D-site 14-mer in ELK1 Y2H prey]	0.332	7.78	
LYKRRKESILTIQK [ASPM, D-site 14-mer, start residue 1508, in ELK1 Y2H prey]	0.329	7.80 and 6.10	
PLFLRRKPVLSFQG [LIG3, D-site 14-mer in ELK1 Y2H prey]	0.487	10.87	
RLLWRRLKPLILGK [ABCA7, D-site 14-mer in ELK1 Y2H prey]	0.266	5.86	
RLQERRGSNVALML [PTPN7, D-site 14-mer in ELK1 Y2H prey]	0.474	9.09	
RLRNRNCLELKIKD [ANKRD12, D-site 14-mer in ELK1 Y2H prey]	0.443	10.11	
RQIRASKGIVVLEE [KANSL1L, D-site 14-mer in ELK1 Y2H prey]			ES, +His [3, 5]: -0.009508; Z-Score, +His [3, 5]: -0.257; ES, -His [3, 6]: -0.1275; Z-Score, -His [3, 6]: -0.06943; ES, +His ([3]; Experiment 1, non-selective): -0.002763; ES, -His ([3]; Experiment 1, selective): -0.1582; ES, +His ([3]; Experiment 2, non-selective): -0.0144; ES, -His ([3]; Experiment 2, selective): -0.1186; ES, +His ([3]; Experiment 3, non-selective): -0.01136; ES, -His ([3]; Experiment 3, selective): -0.1057; ES, +His [4, 7]: -0.008476; Z-Score, +His [4, 7]: -0.2637; ES, -His [4, 8]: -0.1355; Z-Score, -His [4, 8]: -0.3259; ES, +His ([4]; Experiment 1, non-selective): 0.001097; ES, -His ([4]; Experiment 1, selective): -0.1358; ES, +His ([4]; Experiment 2, non-selective): -0.005884; ES, -His ([4]; Experiment 2, selective): -0.07688; ES, +His ([4]; Experiment 3, non-selective): -0.02064; ES, -His ([4]; Experiment 3, selective): -0.1937
RRMRRAGQALKLPS [HAS3, D-site 14-mer in ELK1 Y2H prey]	0.310	7.82	
RRRGRPPKRIHISQ [BAZ1A, D-site 14-mer in ELK1 Y2H prey]	0.150	4.55	
RSKLRKPKPVPLRK [TACC1, D-site 14-mer in ELK1 Y2H prey]	0.162	5.18	
TRHERNYTKVNFCK [ZNF675, D-site 14-mer in ELK1 Y2H prey]	0.359	7.60	
